We go through 25 molecules from patent US9255088B2, “Premature-termination-codons readthrough compounds” (The Regents of the University of California, priority 2010, dated 2016).

Assay [1] concerns ATMs1981 autophosphorylation in AT153LA cells (TGA). Put plainly: Flow cytometry ATMs1981 autophosphorylation (FC-ATM) in AT153LA cells. As to FCATMs1981: key: the positive results on various assays are also summarized and labeled as '+'. Format: cell-based, human. More on the design: FC-ATM (Delta-FI, 30 μM): unit not given here. The settings on record: for FCATMs1981: summary of positive results. As for the experimental part:
FC-SMC1 assay was performed as recently described (Nahas et al., 2009). FC-ATM-Ser1981 assay was based on Honda's assay (Honda et al., 2009, Leukemia. 23:409-414) with modifications. In brief, cells were resuspended in PBS and radiated for 10 Gy. After 1 h, the cells were fixed and permeabilized using the FIX & PERM cell permeabilization kit (Invitrogen). The cells were then incubated with 1 μl of mouse ATM-Ser1981 antibody (Cell Signaling Technology) for 2 h at room temperature. Cells were washed and resuspended in 100 μl PBS with Alexa Fluor 488 anti-mouse IgG (Invitrogen) for 45 min. Cells were next washed and resuspended in PBS with 0.2% paraformaldehyde and analyzed using a FACSCalibur (BD).
Studies on readthrough activity of RTC#13 derivatives as measured by FC-ATMS 1981 were performed according to the procedures provided in Example 1.
These two series, 7 and 9, were tested for readthrough activity using an assay in which the ATM protein kinase activity was measured using a flow cytometry-based ATMs1981 autophosphorylation assay (FC-ATM) (Nahas, S. A; et al., Clin. Chem. 2009, 55, 463-72). […] An increased Delta-FI indicates the restoration of ATM kinase activity by a compound.
(§1) These two series, 13 and 15, were again tested for readthrough activity using the assay in which the ATM protein kinase activity was measured by functional flow cytometry (FC-ATM) (Table 4 and FIG. 12). A second assay, irradiation (1R)-induced ATMs1981 nuclear foci formation (IRIF-ATM), was also used to confirm the readthrough activity of these compounds (Table 4 and FIG. 13). Table 3 summarizes the data for the analogues 13 and 15 (at 30 μM), in which the groups R, R′, and X were varied. More detailed data are reported in FIG. 5 (for FC-ATM assay), and in FIG. 6 (for IRIF-ATM assay). […] Thus, the pyrimidinedione unit serves as a good structural replacement for the 2-imino and 2-thioxo thiazolidin-4-one units.

Assay [2] deals with ATM-Ser1981 foci in AT153LA cells (TGA A). The assay is described as follows: Irradiation-induced ATM-Ser1981 foci (IRIF) in AT153LA cells. As to IRIF (ATMs1981): key: the positive results on various assays are also summarized and labeled as '+'. Format: cell-based, human. Particulars: for IR-induced ATMs1981 foci formation, readthrough activity: A-T153LA cells (TGA), FIG. 13; for IRIF-ATM (%) (30 μM): Table 4, IR-induced ATMs1981 nuclear foci formation; for IRIF (ATMs1981): summary of positive results. As for the experimental part:
To evaluate the function of RTC-induced ATM protein, we measured irradiation-induced foci (IRIF) formation of ATM-Ser1981 in the same ATI53LA cells (TGA A). […] The maximum IRIF induction achieved in A-T cells by 10 μM RTC#13 was ˜40% of wild-type level. As a positive readthrough control, 144 μM of G418 (100 μg/ml) was used to treat cells. Our previous studies had shown that, at this concentration, […] induced a maximum level of ATMs1981 IRIF (Lai et al., 2004).
Immunostaining of nuclear foci of ATM-Ser1981 was performed as previously reported (Du et al., 2007). In brief, after being treated with compound for 4 d, cells were irradiated with 2 Gy and incubated at 37° C. for 30 min. The cells were dropped onto coverslips, fixed with 4% paraformaldehyde, and permeabilized. Coverslips were blocked for 1 h and incubated with mouse anti-ATM pSer1981 for 1 h (1:500; Rockland Immunochemicals, Inc). After a second blocking, cells were stained with FITC-conjugated anti-mouse IgG (1:150; Jackson ImmunoResearch Laboratories) for 1 h and mounted onto slides.
Studies on IR-induced ATMs1981 foci formation by RTC#13 and derivatives 13a, 13b, 13d, 13e, 13f, 13g, 13h, 13i, 13j, and 13k in A-T153LA cells (TGA) were performed according to the procedures provided in Example 1.
as §1

Where [3] appears, read: Table 4, compounds 13 and 15, 30 μM.
Where [4] appears, read: Table 2, compounds 7, 30 µM, change in fluorescence intensity before and after ionizing radiation.

On to `N=C1NC(=O)/C(=C/c2cc3ccccc3o2)S1` [Compound 9a, (Z)-5-(benzofuran-2-ylmethylene)-2-iminothiazolidin-4-one], for which the “FC-ATM (Delta-FI, 30 μM)” value in assay [1] (Table 3, compounds 9, 30 μM) was “negative”.
Turning to `O=Cc1cn(Cc2ccc(-c3ccccc3[N+](=O)[O-])o2)c(=O)[nH]c1=O` [Compound 13d, 1-((5-(2-nitrophenyl)furan-2-yl)methyl)-2,4-dioxo-1,2,3,4-tetrahydropyrimidine-5-carbaldehyde], in assay [2], the “IR-induced ATMs1981 foci formation, readthrough activity” value (from here on “IR-induced ATMs1981 foci formation”) is recorded as “statistically significant readthrough activity”; the “IRIF-ATM (%) (30 μM)” value came to 16.0%; the “IRIF (ATMs1981)” value is recorded as “+”. For the same molecule, the “FC-ATM (Delta-FI, 30 μM)” value in assay [1] (setting [3]) was found to be 2.24. The FCATMs1981 entry in assay [1] is reported as “+”.
As to `CN1C(=N)S/C(=C\c2ccc(-c3ccccc3[N+](=O)[O-])o2)C1=O` [Compound 7c, (Z)-2-imino-3-methyl-5-((5-(2-nitrophenyl)furan-2-yl)methylene)thiazolidin-4-one], the “FC-ATM (Delta-FI, 30 μM)” value in assay [1] (setting [4]) is on record as “negative”.
For the molecule `O=C1NC(=S)S/C1=C\c1ccc(-c2cccc(Cl)c2)o1` [Compound 7p, (Z)-5-((5-(3-chlorophenyl)furan-2-yl)methylene)-2-thioxothiazolidin-4-one], the “FC-ATM (Delta-FI, 30 μM)” value in assay [1] (setting [4]) was 2.86. The FCATMs1981 entry in assay [1] is given as “+”.
For the molecule `COc1cccc(-c2ccc(/C=C3\SC(=S)NC3=O)o2)c1` [Compound 7o], the “FC-ATM (Delta-FI, 30 μM)” value in assay [1] (setting [4]) came out at 2.66. Also, the FCATMs1981 result in assay [1] was “+”.
For `O=c1ccn(Cc2ccc(-c3ccccc3)o2)c(=O)[nH]1` [Compound 13e, 1-((5-phenylfuran-2-yl)methyl)pyrimidine-2,4(1H,3H)-dione], in assay [2], the “IR-induced ATMs1981 foci formation” value is recorded as “statistically significant readthrough activity”; the “IRIF-ATM (%) (30 μM)” value was 9.4%; the “IRIF (ATMs1981)” value is given as “+”. In addition, the “FC-ATM (Delta-FI, 30 μM)” value in assay [1] (setting [3]) is 3.42. In addition, the FCATMs1981 entry in assay [1] was “+”.
Regarding `N=C1NC(=O)/C(=C/c2cn(Cc3ccc(-c4ccccc4[N+](=O)[O-])o3)c(=O)[nH]c2=O)S1` [Compound 13j, (Z)-5-((2-imino-4-oxothiazolidin-5-ylidene)methyl)-1-((5-(2-nitrophenyl)furan-2-yl)methyl)pyrimidine-2,4(1H,3H)-dione], in assay [2], the “IR-induced ATMs1981 foci formation” value is “statistically significant readthrough activity”; the “IRIF-ATM (%) (30 μM)” value was found to be 18%; the “IRIF (ATMs1981)” value is listed as “+”. For the same molecule, the “FC-ATM (Delta-FI, 30 μM)” value in assay [1] (setting [3]) came to 2.42. The FCATMs1981 result in assay [1] is “+”.
Turning to `N=c1[nH]c(=O)n(Cc2ccc(-c3ccccc3[N+](=O)[O-])o2)cc1F` [Compound 15b], the “IRIF-ATM (%) (30 μM)” value in assay [2] is reported as “negative”. For the same molecule, in assay [1] (setting [3]), the “FC-ATM (Delta-FI, 30 μM)” value is reported as “negative”.
As to `O=c1ccn(Cc2ccc(-c3cccc(Cl)c3)o2)c(=O)[nH]1` [Compound 13i, 1-((5-(3-chlorophenyl)furan-2-yl)methyl)pyrimidine-2,4(1H,3H)-dione], in assay [2], the “IR-induced ATMs1981 foci formation” value is reported as “statistically significant readthrough activity” and the “IRIF-ATM (%) (30 μM)” value worked out at 11.33%. The “FC-ATM (Delta-FI, 30 μM)” value in assay [1] (setting [3]) stood at 5.07. The FCATMs1981 result in assay [1] is “+”.
For the molecule `N=C1NC(=O)/C(=C/c2cc3ccccc3[nH]2)S1` [Compound 9b, (Z)-5-((1H-indol-2-yl)methylene)-2-iminothiazolidin-4-one], the “FC-ATM (Delta-FI, 30 μM)” value in assay [1] (Table 3, compounds 9, 30 μM) is on record as “negative”.
For the molecule `COc1cccc(-c2ccc(/C=C3\SC(=N)NC3=O)o2)c1` [Compound 7h, (Z)-2-imino-5-((5-(3-methoxyphenyl)furan-2-yl)methylene)thiazolidin-4-one], the “FC-ATM (Delta-FI, 30 μM)” value in assay [1] (setting [4]) was determined as 1.90. For the same molecule, the FCATMs1981 result in assay [1] was “+”.
On to `N=C1NC(=O)/C(=C/c2ccc(-c3ccccc3F)o2)S1` [Compound 7g, (Z)-5-((5-(2-fluorophenyl)furan-2-yl)methylene)-2-iminothiazolidin-4-one], for which the “FC-ATM (Delta-FI, 30 μM)” value in assay [1] (setting [4]) is recorded as “negative”.
As for `N=C1NC(=O)/C(=C/c2c[nH]c3ccccc23)S1` [Compound 9c, (Z)-5-((1H-indol-3-yl)methylene)-2-iminothiazolidin-4-one], the “FC-ATM (Delta-FI, 30 μM)” value in assay [1] (Table 3, compounds 9, 30 μM) was “negative”.
Still for that read-out and setting: the same measure for `O=C1NC(=S)S/C1=C\c1c[nH]c2ccccc12` [Compound 9i, (Z)-5-((1H-indol-3-yl)methylene)-2-thioxothiazolidin-4-one]: “negative”.
Consider `Cc1cn(Cc2ccc(-c3ccccc3[N+](=O)[O-])o2)c(=O)[nH]c1=O` [Compound 13c], for which the “IRIF-ATM (%) (30 μM)” value in assay [2] was “negative”. Also, in assay [1] (setting [3]), the “FC-ATM (Delta-FI, 30 μM)” value is “negative”.
As to `N=C1NC(=O)/C(=C/c2ccc(-c3ccccn3)o2)S1` [Compound 9d, (Z)-2-imino-5-((5-(pyridin-2-yl)furan-2-yl)methylene)thiazolidin-4-one], the “FC-ATM (Delta-FI, 30 μM)” value in assay [1] (Table 3, compounds 9, 30 μM) was “negative”.
Take `Cc1cn(Cc2ccc(-c3ccccc3)o2)c(=O)[nH]c1=O` [Compound 13f, 5-methyl-1-((5-phenylfuran-2-yl)methyl)pyrimidine-2,4(1H,3H)-dione]: in assay [2], the “IR-induced ATMs1981 foci formation” value was “statistically significant readthrough activity”; the “IRIF-ATM (%) (30 μM)” value is on record as 22.75%; the “IRIF (ATMs1981)” value is “+”. In addition, in assay [1] (setting [3]), the “FC-ATM (Delta-FI, 30 μM)” value is given as 3.80. Further, the FCATMs1981 result in assay [1] was “+”.
With `COc1ccccc1-c1ccc(/C=C2\SC(=S)NC2=O)o1` [Compound 7l, (Z)-5-((5-(2-methoxyphenyl)furan-2-yl)methylene)-2-thioxothiazolidin-4-one], the “FC-ATM (Delta-FI, 30 μM)” value in assay [1] (setting [4]) is “negative”.
Take `N=C1NC(=O)/C(=C/c2ccc(-c3ccccc3)s2)S1` [Compound 9e, (Z)-2-imino-5-((5-phenylthiophen-2-yl)methylene)thiazolidin-4-one]: the “FC-ATM (Delta-FI, 30 μM)” value in assay [1] (Table 3, compounds 9, 30 μM) was “negative”.
`N=C1NC(=O)/C(=C/c2ccc(-c3cccc(Cl)c3)o2)S1` [Compound 7i, (Z)-5-((5-(3-chlorophenyl)furan-2-yl)methylene)-2-iminothiazolidin-4-one]: the “FC-ATM (Delta-FI, 30 μM)” value in assay [1] (setting [4]) worked out at 2.27. In assay [1], the FCATMs1981 result was “+”.
In the case of `O=C1NC(=S)S/C1=C\c1ccc(-c2ccccn2)o1` [Compound 9j, (Z)-5-((5-(pyridin-2-yl)furan-2-yl)methylene)-2-thioxothiazolidin-4-one], in assay [1] (Table 3, compounds 9, 30 μM), the “FC-ATM (Delta-FI, 30 μM)” value was “negative”.
On to `O=C1NC(=S)S/C1=C\c1ccc(-c2ccccc2C(F)(F)F)o1` [Compound 7k, (Z)-2-thioxo-5-((5-(2-(trifluoromethyl)phenyl)furan-2-yl)methylene)thiazolidin-4-one], for which the “FC-ATM (Delta-FI, 30 μM)” value in assay [1] (setting [4]) is given as “negative”.
For the molecule `O=C1NC(=S)S/C1=C\c1cc2ccccc2[nH]1` [Compound 9h, (Z)-5-((1H-indol-2-yl)methylene)-2-thioxothiazolidin-4-one], in assay [1] (Table 3, compounds 9, 30 μM), the “FC-ATM (Delta-FI, 30 μM)” value is on record as “negative”.
As to `O=C1NC(=S)S/C1=C\c1cc2ccccc2o1` [Compound 9g, (Z)-5-(benzofuran-2-ylmethylene)-2-thioxothiazolidin-4-one], in assay [1], the “FC-ATM readthrough activity” value is recorded as “positive results” and the FCATMs1981 entry is listed as “+”. Further, in assay [1] (Table 3, compounds 9, 30 μM), the “FC-ATM (Delta-FI, 30 μM)” value turned out to be 3.50.
For the molecule `N=C1NC(=O)/C(=C/c2ccco2)S1` [Compound 9f, (Z)-5-(furan-2-ylmethylene)-2-iminothiazolidin-4-one], the “FC-ATM (Delta-FI, 30 μM)” value in assay [1] (Table 3, compounds 9, 30 μM) is reported as “negative”.
